Data published in publication PMC4549706, “Rational Design of Highly Potent and Slow-Binding Cytochrome bc1 Inhibitor as Fungicide by Computational Substitution Optimization” (Scientific Reports, 2015).
Where two headings read alike, the source gives them in different places.

Experiments:
[1] = system: Sphaerotheca fuliginea (Schlecht.) Poll.; assay: In vivo fungus growth inhibitory rate at 200 mg/L, powdery mildew
Excerpt: Based on the above in vitro study, compounds with nanomolar and subnanomolar Ki values were selected from the total 21 newly synthezised compounds for further studies. Pesticide likeness, defined as a complex balance of various physicochemical properties and structure features, can evaluate whether a molecule is similar to the known pesticides. After the filtration of pesticide likeness, seven compounds were kept to adhere to our previously defined rules for pesticide-likeness including molecular weight (MW) ≤ 435 Da, ClogP ≤ 6, number of H-bond acceptors (HBA) ≤ 6, number of H-bond donors (HBD) ≤ 2, number of rotatable bonds (ROB) ≤ 9, and number of aromatic bonds (ARB) ≤ 17 (Table 1)[24]. […] Therefore, compound 18 was recognized as lead compound for subsequent studies.
[a] Compounds are named as “series number-site number plus substitution group number” a: -F, b: -Cl, c:
-Br, d: -NO2, e: -CH3, f: -CF3, g: -OCH3, h: -OH, i: -NH2, j: -COOH.
[b] Substitution number and group.
[c] CH is “series 1” and N is “series 2”. […]
Table S2 Fungus growth inhibitory rate of target compounds (200 mg/L).
Comp. No. R X Sphaerotheca fuliginea Pseudoperonospora cubensis

S. fuliginea = assay: Field trial, summer squash naturally infected, powdery mildew; format: in vivo, Sphaerotheca fuliginea
Experimental: To further study the potential of compound 18 against powdery mildew and downy mildew, field experiments were conducted during the growing season of summer squash and cucumber. The summer squash plants at a fruiting stage naturally infected by S. fuliginea were used. […] Almost no lesions were observed on the leaves of summer squash. […] Lesions on the leaves of control plants, however, expanded quickly, and intense fungal hyphae could be observed. The curative effect is approximately 64.85% for the AZ-treated (93.75 g.ai/ha) summer squash. In addition, field trials for the treatment of downy mildew of cucumber were also performed. Cucumber plants naturally infected by P. cubensis were used for the study. Fungi on the leaves of control plants expanded quickly and lesions could be observed.
In the field trials, summer squash plants which is naturally infected by S. fuliginea and cucumber plants which is naturally infected by P. cubensis were used.
The disease index and control effect of compound 18 were calculated via the following […]
Disease index (%) = ∑(Ni × i)/(N × 9) × 100 […]
Each treatment took up in four plots and was distributed randomly in each […]eld. The relative control effects were assessed after the 7th day of foliar application 18. […]

COC=C(C(=O)OC)c1ccccc1CSc1nc2cc(OC)ccc2s1 [Compound 18]
Fungus growth inhibitory rate, Sphaerotheca fuliginea [1]: completely inhibited | Fungus growth inhibitory rate, Sphaerotheca fuliginea ([1]; listed as Comp. 18): 100% | curative effect, powdery mildew (S. fuliginea) (S. fuliginea; 37.5 g.ai/ha, 7th day): approximately 70.92% | curative effect, powdery mildew (S. fuliginea) (S. fuliginea; 75 g.ai/ha, 7th day after foliar application): 74.60%
